Experiments:
adult Tenebrio molitor = assay: whole plant or invertebrate; conditions: in Solanum tuberosum, 24 h
Protocol: Ten (10) gram pieces of potato were placed into individual jars. […] The acetone-surfactant solution comprised acetone. Triton® 152, and Triton® 172 mixed in volumetric ratio of about 785:1:3. […] Adult Tenebrio molitor and a strip of paper towel 1 cm by 3 cm were added to each jar. Mortality was rated at 1 day after treatment.
If the actually observed value is greater than the expected value […] then there is synergism.

[1] = system: darkling beetles (Alphitobius diaperinus); assay: Poultry house litter treatment, darkling beetle population monitored with 9 traps; format: in vivo; conditions: water-dispersible granules containing 80% of compound (A), 150 g/ha; during the 10th week (end of a rearing cycle)
Protocol: The treatment took place on the clean litter before the poultry was installed therein. The clean litter was essentially composed of straw.
On the day after the treatment, a group of chicks aged 1 to 2 days was installed in the rearing house at the rate of approximately 7 animals per m^2.
The change in the population of darkling beetles (Alphitobius diaperinus) in the litter was regularly monitored using 9 homogeneously distributed traps. Measurements were carried out each week from the second week after the treatment until rearing was halted.
The total population of darkling beetles in the 9 traps of the treated poultry house varied between 11 and 96 until the 9th week after treatment whereas, in a similar but untreated poultry house, the population of darkling beetles (larvae and adults) oscillated between 1000 and 3000 at each counting point.

fly larvae = conditions: 25 ppm of compound (A); surface of poultry dung and cow dung
Protocol: An application was carried out at the surface of poultry dung and of cow dung treated beforehand with fly larvae.

CNC(=O)Oc1cccc2ccccc12 [Carbaryl, 1-naphthyl methylcarbamate, reference compound]
mortality at 6.25 ppm (adult Tenebrio molitor): 0% | mortality at 25 ppm (adult Tenebrio molitor): 27% | mortality at 100 ppm (adult Tenebrio molitor): 80% | mortality at 400 ppm (adult Tenebrio molitor): 93%

N#Cc1nn(-c2c(Cl)cc(C(F)(F)F)cc2Cl)c(N)c1[S+]([O-])C(F)(F)F (stereo not drawn) [compound (A), 1-[2,6-Cl2-4-CF3phenyl]-3-CN-4-[SO—CF3]-5-NH2pyrazole]
control of darkling beetles [1]: 86% | inhibition of larval development of the flies (effectiveness with respect to untreated controls) (fly larvae): 100%

— US6358988B1, “Process and composition for the antiparasitic treatment of the surroundings of animals” (priority 1996, dated 2002)
